Data: patent US20100056508A1, “AMINE DERIVATIVES AND THEIR USE IN BETA-2-ADRENORECEPTOR MEDIATED DISEASES” (ASTRAZENECA AB, priority 2006, published 2010)

Tests used:
[1] = biological target: T1, recombinant human adrenergic beta 1 receptors (Homo sapiens, UniProt P08588); assay: Adrenergic β1 selectivity assay, [125I]-Iodocyanopindolol binding to membranes; settings: inhibition of [125I]-Iodocyanopindolol binding, read-out: β1 bind pIC50 (converted)
T1 construct: purchased Euroscreen
Procedure: Membranes containing recombinant human adrenergic beta 1 receptors were obtained from Euroscreen. These were diluted in Assay Buffer (50 mM HEPES, 1 mM EDTA, 120 mM NaCl, 0.1% gelatin, pH 7.4) to provide a final concentration of membranes that gave a clear window between maximum and minimum specific binding.
Assays were performed in U-bottomed 96-well polypropylene plates. 10 μL [^125I]-Iodocyanopindolol (0.036 nM final concentration) and 10 μL of test compound (10× final concentration) were added to each test well. For each assay plate 8 replicates were obtained for [^125I]-Iodocyanopindolol binding in the presence of 10 μL vehicle (10% (v/v) DMSO in Assay Buffer; defining maximum binding) or 10 μL Propranolol (10 μM final concentration; defining non-specific binding (NSB)). Membranes were then added to achieve a final volume of 100 μL. The plates were incubated for 2 hours at room temperature and then filtered onto PEI coated GF/B filter plates, pre-soaked for 1 hour in Assay Buffer, using a 96-well plate Tomtec cell harvester. Five washes with 250 μL wash buffer (50 mM HEPES, 1 mM EDTA, 120 mM NaCl, pH 7.4) were performed at 4° C. to remove unbound radioactivity. The plates were dried then sealed from underneath using Packard plate sealers and MicroScint-O (50 μL) was added to each well. The plates were sealed (TopSeal A) and filter-bound radioactivity was measured with a scintillation counter (TopCount, Packard BioScience) using a 3-minute counting protocol.
Total specific binding (B0) was determined by subtracting the mean NSB from the mean maximum binding. NSB values were also subtracted from values from all other wells. […] Data was fitted to a four parameter logistic equation to determine the compound potency, which was expressed as pIC50 (negative log molar concentration inducing 50% inhibition of [^125I]-Iodocyanopindolol binding).

[2] = biological target: T2, recombinant human Dopamine Subtype D2s receptors (Homo sapiens, UniProt P14416); assay: Dopamine D2 selectivity assay, [3H]-spiperone binding to membranes; settings: inhibition of [3H]-spiperone binding, read-out: D2 bind pIC50 (converted)
T2 construct: purchased Perkin Elmer
T2 sequence (P14416 1-414 isoform P14416-2): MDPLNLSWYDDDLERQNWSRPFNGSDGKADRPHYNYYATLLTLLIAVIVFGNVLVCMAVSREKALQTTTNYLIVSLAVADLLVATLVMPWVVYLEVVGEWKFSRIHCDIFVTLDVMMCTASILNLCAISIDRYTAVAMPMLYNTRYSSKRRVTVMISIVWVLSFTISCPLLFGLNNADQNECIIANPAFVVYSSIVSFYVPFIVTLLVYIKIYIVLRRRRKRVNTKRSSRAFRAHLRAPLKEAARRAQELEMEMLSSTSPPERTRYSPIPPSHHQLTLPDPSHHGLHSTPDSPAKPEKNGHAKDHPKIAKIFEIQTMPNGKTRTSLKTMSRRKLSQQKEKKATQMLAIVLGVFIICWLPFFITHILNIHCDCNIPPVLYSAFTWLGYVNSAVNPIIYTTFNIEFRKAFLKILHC
Outline: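 Human D2s receptor membranes incubated 2 h at room temperature with 0.16 nM [3H]-spiperone and test compound in HEPES buffer pH 7.4 (120 mM NaCl, 0.1% gelatin). Non-specific binding defined with 10 μM haloperidol; filter-bound radioactivity counted, pIC50 from four-parameter logistic fit.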

T1 sequence (P08588 whole entry): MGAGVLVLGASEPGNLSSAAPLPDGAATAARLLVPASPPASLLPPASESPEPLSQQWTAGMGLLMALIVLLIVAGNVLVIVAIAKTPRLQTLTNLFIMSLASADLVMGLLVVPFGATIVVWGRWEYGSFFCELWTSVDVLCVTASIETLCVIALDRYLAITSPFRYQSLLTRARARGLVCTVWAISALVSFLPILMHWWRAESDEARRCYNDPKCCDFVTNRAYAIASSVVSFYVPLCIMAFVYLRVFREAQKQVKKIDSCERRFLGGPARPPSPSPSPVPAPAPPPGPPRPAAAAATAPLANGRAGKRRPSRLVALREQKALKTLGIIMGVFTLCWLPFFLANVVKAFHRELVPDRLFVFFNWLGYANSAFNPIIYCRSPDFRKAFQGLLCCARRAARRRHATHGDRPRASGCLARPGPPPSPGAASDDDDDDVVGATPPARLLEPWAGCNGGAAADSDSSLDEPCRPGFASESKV

| IC50 [1] | IC50 [2] | Structure (SMILES) |
| --- | --- | --- |
| > 10 µM | 0.251 µM | O=C1COc2c(CCNCCN(C(=O)CCNCCc3cc(F)cc(F)c3)C3CCCCC3)ccc(O)c2N1 [Example 35, N-Cyclohexyl-3-(3,5-difluorophenethylamino)-N-(2-(2-(5-hydroxy-3-oxo-3,4-dihydro-2H-benzo[b][1,4]oxazin-8-yl)ethylamino)ethyl)propanamide bis(trifluoroacetate)] |
| 3.16 µM | 0.631 µM | O=C1COc2c(CCNCCN(C(=O)CCNCCc3cccc(F)c3F)C3CCCCC3)ccc(O)c2N1 [Example 36, N-Cyclohexyl-3-(2,3-difluorophenethylamino)-N-(2-(2-(5-hydroxy-3-oxo-3,4-dihydro-2H-benzo[b][1,4]oxazin-8-yl)ethylamino)ethyl)propanamide bis(trifluoroacetate)] |
| 1 µM | 0.1 µM | O=C1COc2c(CCNCCN(C(=O)CCNCCc3ccc(F)c(Cl)c3)C3CCCCC3)ccc(O)c2N1 [Example 37, 3-(3-Chloro-4-fluorophenethylamino)-N-cyclohexyl-N-(2-(2-(5-hydroxy-3-oxo-3,4-dihydro-2H-benzo[b][1,4]oxazin-8-yl)ethylamino)ethyl)propanamide bis(trifluoroacetate)] |
| > 5.01 µM | 0.126 µM | O=C1COc2c(CCNCCN(C(=O)CCNCCc3cc(F)ccc3F)C3CCCCC3)ccc(O)c2N1 [Example 38, N-Cyclohexyl-3-(2,5-difluorophenethylamino)-N-(2-(2-(5-hydroxy-3-oxo-3,4-dihydro-2H-benzo[b][1,4]oxazin-8-yl)ethylamino)ethyl)propanamide bis(trifluoroacetate)] |
| 1.26 µM | 0.1 µM | O=C1COc2c(CCNCCN(C(=O)CCNCCc3cccc(Cl)c3F)C3CCCCC3)ccc(O)c2N1 [Example 39, 3-(3-Chloro-2-fluorophenethylamino)-N-cyclohexyl-N-(2-(2-(5-hydroxy-3-oxo-3,4-dihydro-2H-benzo[b][1,4]oxazin-8-yl)ethylamino)ethyl)propanamide bis(trifluoroacetate)] |
| > 7.94 µM | 0.398 µM | Cc1cc(CCNCCC(=O)N(CCNCCc2ccc(O)c3c2OCC(=O)N3)C2CCCCC2)ccc1F [Example 40, N-Cyclohexyl-3-(4-fluoro-3-methylphenethylamino)-N-(2-(2-(5-hydroxy-3-oxo-3,4-dihydro-2H-benzo[b][1,4]oxazin-8-yl)ethylamino)ethyl)propanamide bis(trifluoroacetate)] |
| > 7.94 µM | 0.2 µM | O=C1COc2c(CCNCCN(C(=O)CCNCCc3cc(F)cc(Cl)c3)C3CCCCC3)ccc(O)c2N1 [Example 41, 3-(3-Chloro-5-fluorophenethylamino)-N-cyclohexyl-N-(2-(2-(5-hydroxy-3-oxo-3,4-dihydro-2H-benzo[b][1,4]oxazin-8-yl)ethylamino)ethyl)propanamide (trifluoroacetate)] |
| 3.16 µM | 0.316 µM | O=C1COc2c(CCNCCN(C(=O)CCNCCc3ccc(F)c(F)c3)C3CCCCC3)ccc(O)c2N1 [Example 42, N-Cyclohexyl-3-(3,4-difluorophenethylamino)-N-(2-(2-(5-hydroxy-3-oxo-3,4-dihydro-2H-benzo[b][1,4]oxazin-8-yl)ethylamino)ethyl)propanamide bis(trifluoroacetate)] |
| > 10 µM | > 10 µM | O=C1COc2c(CCNCCN(C(=O)CCNCCc3ccc(C(=O)O)cc3)C3CCCCC3)ccc(O)c2N1 [Example 43, 4-(2-(3-(Cyclohexyl(2-(2-(5-hydroxy-3-oxo-3,4-dihydro-2H-benzo[b][1,4]oxazin-8-yl)ethylamino)ethyl)amino)-3-oxopropylamino)ethyl)benzoic acid bis(trifluoroacetate)] |
| 1.26 µM | 0.0794 µM | CCCC[C@@H](C)N(CCNCCc1ccc(O)c2c1OCC(=O)N2)C(=O)CCNCCc1cccc(Cl)c1 [Example 44, (R)-3-(3-Chlorophenethylamino)-N-(hexan-2-yl)-N-(2-(2-(5-hydroxy-3-oxo-3,4-dihydro-2H-benzo[b][1,4]oxazin-8-yl)ethylamino)ethyl)propanamide bis(trifluoroacetate)] |
| 1.26 µM | 0.0794 µM | CCCC[C@@H](C)N(CCNCCc1ccc(O)c2c1OCC(=O)N2)C(=O)CCNCCc1ccc(Cl)cc1 [Example 45, (R)-3-(4-Chlorophenethylamino)-N-(hexan-2-yl)-N-(2-(2-(5-hydroxy-3-oxo-3,4-dihydro-2H-benzo[b][1,4]oxazin-8-yl)ethylamino)ethyl)propanamide bis(trifluoroacetate)] |
| 1.58 µM | 0.0158 µM | CCCC[C@@H](C)N(CCNCCc1ccc(O)c2c1OCC(=O)N2)C(=O)CCNCCc1ccccc1Cl [Example 46, (R)-3-(2-Chlorophenethylamino)-N-(hexan-2-yl)-N-(2-(2-(5-hydroxy-3-oxo-3,4-dihydro-2H-benzo[b][1,4]oxazin-8-yl)ethylamino)ethyl)propanamide bis(trifluoroacetate)] |
| 0.631 µM | 0.0501 µM | CCCC[C@@H](C)N(CCNCCc1ccc(O)c2c1OCC(=O)N2)C(=O)CCNCCc1ccc(F)c(C)c1 [Example 47, (R)-3-(4-Fluoro-3-methylphenethylamino)-N-(hexan-2-yl)-N-(2-(2-(5-hydroxy-3-oxo-3,4-dihydro-2H-benzo[b][1,4]oxazin-8-yl)ethylamino)ethyl)propanamide bis(trifluoroacetate)] |
| 0.794 µM | 0.0794 µM | CCCC[C@@H](C)N(CCNCCc1ccc(O)c2c1OCC(=O)N2)C(=O)CCNCCc1ccc(F)c(Cl)c1 [Example 48, (R)-3-(3-Chloro-4-fluorophenethylamino)-N-(hexan-2-yl)-N-(2-(2-(5-hydroxy-3-oxo-3,4-dihydro-2H-benzo[b][1,4]oxazin-8-yl)ethylamino)ethyl)propanamide bis(trifluoroacetate)] |
| 1 µM | 0.0631 µM | CCCC[C@@H](C)N(CCNCCc1ccc(O)c2c1OCC(=O)N2)C(=O)CCNCCc1ccc(Cl)s1 [Example 49, (R)-3-(2-(5-Chlorothiophen-2-yl)ethylamino)-N-(hexan-2-yl)-N-(2-(2-(5-hydroxy-3-oxo-3,4-dihydro-2H-benzo[b][1,4]oxazin-8-yl)ethylamino)ethyl)propanamide bis(trifluoroacetate)] |
| 1.26 µM | 0.0316 µM | CCCC[C@@H](C)N(CCNCCc1ccc(O)c2c1OCC(=O)N2)C(=O)CCNCCc1cc(F)cc(Cl)c1 [Example 50, (R)-3-(3-Chloro-5-fluorophenethylamino)-N-(hexan-2-yl)-N-(2-(2-(5-hydroxy-3-oxo-3,4-dihydro-2H-benzo[b][1,4]oxazin-8-yl)ethylamino)ethyl)propanamide bis(trifluoroacetate)] |
| 2 µM | 0.0398 µM | CCCC[C@@H](C)N(CCNCCc1ccc(O)c2c1OCC(=O)N2)C(=O)CCNCCc1cc(F)cc(F)c1 [Example 51, (R)-3-(3,5-Difluorophenethylamino)-N-(hexan-2-yl)-N-(2-(2-(5-hydroxy-3-oxo-3,4-dihydro-2H-benzo[b][1,4]oxazin-8-yl)ethylamino)ethyl)propanamide bis(trifluoroacetate)] |
| 1.58 µM | 0.0631 µM | CCCC[C@@H](C)N(CCNCCc1ccc(O)c2c1OCC(=O)N2)C(=O)CCNCCc1ccc(F)c(F)c1 [Example 52, (R)-3-(3,4-Difluorophenethylamino)-N-(hexan-2-yl)-N-(2-(2-(5-hydroxy-3-oxo-3,4-dihydro-2H-benzo[b][1,4]oxazin-8-yl)ethylamino)ethyl)propanamide bis(trifluoroacetate)] |
| 2.51 µM | 0.0398 µM | CCCC[C@@H](C)N(CCNCCc1ccc(O)c2c1OCC(=O)N2)C(=O)CCNCCc1cccc(F)c1F [Example 53, (R)-3-(2,3-Difluorophenethylamino)-N-(hexan-2-yl)-N-(2-(2-(5-hydroxy-3-oxo-3,4-dihydro-2H-benzo[b][1,4]oxazin-8-yl)ethylamino)ethyl)propanamide bis(trifluoroacetate)] |
| 2 µM | 0.0316 µM | CCCC[C@@H](C)N(CCNCCc1ccc(O)c2c1OCC(=O)N2)C(=O)CCNCCc1cc(F)ccc1F [Example 54, (R)-3-(2,5-Difluorophenethylamino)-N-(hexan-2-yl)-N-(2-(2-(5-hydroxy-3-oxo-3,4-dihydro-2H-benzo[b][1,4]oxazin-8-yl)ethylamino)ethyl)propanamide bis(trifluoroacetate)] |
